Like-named read-outs stand apart in the source and are kept apart here.
Key:
[1] = biological target: T1, B1-AR (Homo sapiens, UniProt P08588); assay: cAMP Gs dynamic HTRF assay, cells expressing beta-adrenergic receptor (CHO-K1), B1-AR; type: cell-based; conditions: for EC50: cAMP HTRF, read-out: pEC50 [B1-AR] (converted); for Emax: relative to full agonist isoproterenol, read-out: Emax (% iso) (%) [B1-AR]
T1 construct: expressed in transfected cells; host or cells: CHO-K1
Protocol: (§1) cAMP homogeneous time-resolved fluorescence (HTRF): experimental methods. Compound efficacy is determined using the cAMP Gs dynamic HTRF assay (Cisbio, catalog #62AM4PEC) largely following the manufacturer's instructions, also detailed below.
(§2) Standard serial dilution curves are 10-point, 5-fold dilutions starting from a highest concentration of 10 μM. Controls present on every assay plate are 0.1% DMSO (vehicle control), 1 μM isoproterenol (full beta-adrenergic agonist control) and […] xamoterol (partial beta-adrenergic agonist control). […] Assay plates are centrifuged at 500×g for 10 seconds. Compounds and IBMX are prepared at 2× final dose to compensate for addition of cells.
(§3) Cell preparation: 1× stimulation buffer, washing PBS (Dulbecco's phosphate-buffered saline, − Mg − Ca; Caisson Labs, catalog #PBL01), assay PBS (Dulbecco's phosphate-buffered saline, + Mg, + Ca; Caisson Labs, catalog #PBL02) and Versene (0.02% EDTA disodium salt solution in PBS without calcium or magnesium; Caisson Labs, catalog #EDL01) are pre-warmed to 37° C. Cells expressing beta-adrenergic receptor were washed in washing PBS to remove growth medium and then released from the surface by incubating with Versene for 5-10 minutes at 37° C. Cells are harvested using assay PBS, counted manually by hemocytometer or by an automated cell counter, pelleted by centrifugation (200×g, 5 minutes) and resuspended in 37° C. 1× stimulation buffer to a final density of 1.5×10^6 cells/mL. 5 μL of the suspended cell solution (7500 cell total) are added to all wells of the 384 well assay plate, the assay plate was covered with an Axygen® plate seal (Corning PCR-SP) and incubated in a humidified 37° C. environment supplemented with 5% CO2 for 30 minutes.
(§4) HTRF reagent addition, reading and data analysis: After 30 minutes of cell stimulation with test compound, the assay plates are centrifuged at 500×g for 10 seconds, and incubation was stopped with the addition of 5 μL cAMP-D2 acceptor, diluted 1:21 in detection and lysis buffer 2 (Cisbio 62CL2FDF) was added to all cells. Subsequently, 5 μL Anti-cAMP-Eu Donor, diluted 1:21 in detection and lysis buffer 2, was added to cells. Plates were sealed and reactions gently ‘vortexed’ at 900 rpm on a Heidolph Titramax 1000 for at least 30 minutes at room temperature. Plates are centrifuged again at 500×g for 10 seconds, and HTRF was measured using a Tecan Spark plate reader at 50 flashes per well. […] Potency estimates (EC50 and pEC50) are derived from the four-parameter nonlinear regression of the concentration-effect curve and an estimate of relative efficacy is determined by comparing the magnitude of the test compound HTRF signal window (min−max dose) with the signal window of the full agonist control, isoproterenol.

[2] = biological target: T2, B2-AR (Homo sapiens, UniProt P07550); assay: cAMP Gs dynamic HTRF assay, cells expressing beta-adrenergic receptor (CHO-K1), B2-AR; type: cell-based; conditions: for EC50: cAMP HTRF, read-out: pEC50 [B2-AR] (converted); for Emax: relative to full agonist isoproterenol, read-out: Emax (% iso) (%) [B2-AR]
T2 construct: expressed in transfected cells; host or cells: CHO-K1
Protocol: as §1, §2, §3, §4

T2 sequence (P07550 whole entry, species assumed): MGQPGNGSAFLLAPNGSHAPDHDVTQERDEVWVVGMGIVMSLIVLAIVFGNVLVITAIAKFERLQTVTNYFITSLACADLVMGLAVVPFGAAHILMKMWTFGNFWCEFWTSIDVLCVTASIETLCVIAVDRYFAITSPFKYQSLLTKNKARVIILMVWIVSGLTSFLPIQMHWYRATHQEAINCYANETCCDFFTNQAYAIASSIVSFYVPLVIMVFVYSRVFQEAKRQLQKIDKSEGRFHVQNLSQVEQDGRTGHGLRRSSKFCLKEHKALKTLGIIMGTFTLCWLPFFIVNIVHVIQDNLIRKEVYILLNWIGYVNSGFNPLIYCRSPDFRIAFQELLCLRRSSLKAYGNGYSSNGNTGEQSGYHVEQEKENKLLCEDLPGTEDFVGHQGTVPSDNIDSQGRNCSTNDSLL
T1 sequence (P08588 whole entry, species assumed): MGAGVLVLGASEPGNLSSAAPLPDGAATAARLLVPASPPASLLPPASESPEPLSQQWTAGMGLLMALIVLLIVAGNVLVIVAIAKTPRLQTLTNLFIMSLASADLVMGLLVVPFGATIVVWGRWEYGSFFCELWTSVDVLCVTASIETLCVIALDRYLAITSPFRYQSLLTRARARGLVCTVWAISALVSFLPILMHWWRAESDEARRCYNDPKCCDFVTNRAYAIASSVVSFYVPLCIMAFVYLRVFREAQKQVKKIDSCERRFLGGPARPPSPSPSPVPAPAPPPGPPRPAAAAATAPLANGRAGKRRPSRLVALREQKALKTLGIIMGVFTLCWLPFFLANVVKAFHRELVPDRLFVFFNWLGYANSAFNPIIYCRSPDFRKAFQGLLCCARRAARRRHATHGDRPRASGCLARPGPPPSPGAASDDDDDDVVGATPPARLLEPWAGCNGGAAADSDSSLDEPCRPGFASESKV

Row | Compound | EC50 [1] [nM] | Emax [1] [%] | EC50 ([2]; CHO-K1 cells) [nM] | Emax ([2]; CHO-K1 cells) [%] | Emax ([2]; CHO-K1, CHO-K1 cells) [%]
1 | CC(C)(NC[C@H](O)c1cc(C#N)cc2[nH]ncc12)C1CC1 [I-1] | 100 to 1000 | > 90 | 10 to 100 | > 90 | 
2 | C[C@H](NC[C@H](O)c1cccc2c1C(F)(F)C(=O)N2)C(C)(C)C [I-2] | > 1000 | 50 to 70 | 10 to 100 | > 90 | 
3 | C[C@H](NC[C@H](O)c1ccc(Cl)c2[nH]ncc12)C(C)(C)C [I-3] | 100 to 1000 | 50 to 70 | < 10 |  | 70 to 90
4 | CC(C)(C)C(C)(C)NC[C@H](O)c1cc(C#N)cc2[nH]ncc12 [I-4] | > 1000 | < 50 | 100 to 1000 |  | > 90
5 | C[C@H](NC[C@H](O)c1cc(C#N)cc2[nH]ncc12)C(C)(C)C [I-5] | > 1000 | 50 to 70 | 100 to 1000 |  | 70 to 90
6 | C[C@H](NC[C@H](O)c1cccc2[nH]ncc12)C(C)(C)C [I-6] | 100 to 1000 | 70 to 90 | < 10 |  | > 90
7 | CC(C)(C)C(C)(C)NC[C@H](O)c1cccc2[nH]ncc12 [I-7] | 100 to 1000 | > 90 | < 10 |  | > 90
8 | CC(C)(C)C(C)(C)NC[C@H](O)c1ccc(F)c2[nH]ncc12 [I-8] | > 1000 | 70 to 90 | < 10 | > 90 | 
9 | C[C@@H](NC[C@H](O)c1cccc2[nH]ncc12)C(C)(C)C [I-9] | 10 to 100 | > 90 | < 10 |  | > 90
10 | C[C@@H](NC[C@H](O)c1ccc(F)c2[nH]ncc12)C1CC1 [I-10] | < 10 | 70 to 90 | < 10 |  | > 90
11 | C[C@H](NC[C@H](O)c1cccc2[nH]ncc12)C1CC1 [I-11] | < 10 | > 90 | < 10 |  | > 90
12 | CC(C)(NC[C@H](O)c1cccc2[nH]ncc12)C1CC1 [I-12] | < 10 | > 90 | < 10 | > 90 | 
13 | C[C@@H](NC[C@H](O)c1cccc2[nH]ncc12)C1CC1 [I-13] | < 10 | > 90 | < 10 |  | > 90
14 | C[C@H](NC[C@H](O)c1ccc(F)c2[nH]ncc12)C(C)(C)C [I-14] | 100 to 1000 | 70 to 90 | < 10 |  | 50 to 70
15 | COc1ccc(C[C@@H](C)NC[C@H](O)c2cc(F)cc3[nH]ncc23)cc1 [I-15] | < 10 | > 90 | < 10 | > 90 | 
16 | C[C@@H](NC[C@H](O)c1ccc(F)c2[nH]ncc12)C(C)(C)C [I-16] | 10 to 100 | > 90 | < 10 |  | > 90
17 | COc1ccc(C[C@@H](C)NC[C@H](O)c2ccc(F)c3[nH]ncc23)cc1 [I-17] | < 10 | > 90 | < 10 | > 90 | 
18 | COc1ccc(C[C@@H](C)NC[C@H](O)c2cccc3[nH]nc(F)c23)cc1 [I-18] | < 10 | > 90 | < 10 | > 90 | 

Row | Compound | EC50 [1] [nM] | Emax [1] [%] | EC50 ([2]; CHO-K1 cells) [nM] | Emax ([2]; CHO-K1 cells) [%] | Emax ([2]; CHO-K1, CHO-K1 cells) [%]
19 | CC(C)(NC[C@H](O)c1cc(F)cc2[nH]ncc12)C1CC1 [I-19] | < 10 | > 90 | < 10 |  | > 90
20 | CC(C)(NC[C@H](O)c1cccc2[nH]nc(F)c12)C1CC1 [I-20] | < 10 | > 90 | < 10 |  | > 90
21 | CC(C)(NC[C@H](O)c1ccc(F)c2[nH]ncc12)C1CC1 [I-21] | < 10 | > 90 | < 10 | > 90 | 
22 | CC(C)C(C)(C)NC[C@H](O)c1ccc(F)c2[nH]ncc12 [I-22] | 10 to 100 | > 90 | < 10 | > 90 | 
23 | CCC(C)(CC)NC[C@H](O)c1cccc2[nH]ncc12 [I-23] | < 10 | > 90 | < 10 | > 90 | 
24 | CC[C@H](C)NC[C@H](O)c1cccc2[nH]ncc12 [I-24] | 10 to 100 | > 90 | < 10 | > 90 | 
25 | CC(C)C(C)(C)NC[C@H](O)c1cccc2[nH]nc(F)c12 [I-25] | < 10 | > 90 | < 10 | > 90 | 
26 | CCC(C)(CC)NC[C@H](O)c1cc(F)cc2[nH]ncc12 [I-26] | < 10 | > 90 | < 10 |  | > 90
27 | CC(C)[C@@H](C)NC[C@H](O)c1cc(F)cc2[nH]ncc12 [I-27] | < 10 | > 90 | < 10 | > 90 | 
28 | CCC(C)(CC)NC[C@H](O)c1ccc(F)c2[nH]ncc12 [I-28] | < 10 | > 90 | < 10 |  | > 90
29 | CC(C)C(C)(C)NC[C@H](O)c1cccc2[nH]ncc12 [I-29] | 10 to 100 | > 90 | < 10 |  | > 90
30 | CCC(C)(CC)NC[C@H](O)c1cccc2[nH]nc(F)c12 [I-30] | < 10 | > 90 | < 10 | > 90 | 
31 | CC(C)[C@@H](C)NC[C@H](O)c1ccc(F)c2[nH]ncc12 [I-31] | 10 to 100 | 70 to 90 | < 10 |  | > 90
32 | CC(C)C(C)(C)NC[C@H](O)c1cc(F)cc2[nH]ncc12 [I-32] | 10 to 100 | > 90 | < 10 | > 90 | 
33 | CC(C)[C@@H](C)NC[C@H](O)c1cccc2[nH]ncc12 [I-33] | < 10 | 70 to 90 | < 10 | > 90 | 
34 | CC[C@H](C)NC[C@H](O)c1cc(F)cc2[nH]ncc12 [I-34] | < 10 | > 90 | < 10 | 70 to 90 | 
35 | CC[C@H](C)NC[C@H](O)c1cccc2[nH]nc(F)c12 [I-35] | < 10 | 70 to 90 | < 10 | 70 to 90 | 
